Reference: PubChem BioAssay (NCI)
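Dose response: 5 concentrations. Exposure: 48 h. Format: 96-well plates. Endpoint: linear interpolation; highest concentration if not reached. At the TGI there is no net growth.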

How the values were obtained:
Assay in all cases: NCI tumour cell line growth inhibition, 48 h
NCI-H226 lung = tested on: NCI-H226 lung
OVCAR-4 ovarian = tested on: OVCAR-4 ovarian
MDA-MB-231 breast = tested on: MDA-MB-231 breast
UACC-257 melanoma = tested on: UACC-257 melanoma
MOLT-4 leukemia = tested on: MOLT-4 leukemia
CCRF-CEM leukemia = tested on: CCRF-CEM leukemia

| SMILES | TGI (NCI-H226 lung) [µM] | TGI (OVCAR-4 ovarian) [µM] | TGI (MDA-MB-231 breast) [µM] | TGI (UACC-257 melanoma) [µM] | TGI (MOLT-4 leukemia) [µM] | TGI (CCRF-CEM leukemia) [µM] |
| --- | --- | --- | --- | --- | --- | --- |
| O=c1c2ccccc2nc(-c2ccccc2)n1/N=C/c1ccccc1[N+](=O)[O-] | > 100 | > 100 | > 72.8 | > 100 | > 100 | > 100 |
| Cc1c(CN2CCOCC2)c(CN2CCOCC2)c(C)n1-c1ccc(Cl)cn1 | > 100 | > 100 | > 100 | > 100 | > 100 | > 100 |
| COC(=O)C(Cc1c(-c2[nH]c3ccccc3c2CC(NC(C)=O)C(=O)OC)[nH]c2ccccc12)NC(C)=O (stereo not drawn) | > 100 |  | > 100 | > 100 | > 100 | > 100 |
| C[C@H]1[C@H]2[C@H](C[C@@]3(C)C4=CC[C@H]5C(C)(C)[C@@H](OC6OCC(O)C(O)C6O)CC[C@@]56C[C@@]46CC[C@]23C)O[C@@]2(O)[C@@H]1OC(C)(C)[C@H]2O (stereo partly drawn) | 6.73 | 7.17 | 6.9 | 4.7 | 24.2 | 3.24 |
| CN1C(=O)C(O)CC1c1ccccc1F (stereo not drawn) | > 100 | > 100 | > 100 | > 100 | > 100 | > 100 |
| COC(=O)c1cc(C#N)[nH]c1-c1ccc(Br)s1 | 26.3 | 36.7 | 30.7 | 24.9 | 64.9 | 49.9 |
| CCOC(=O)CCCc1cc(=O)c2c(C)c3[nH]c4ccc(Cl)cc4c3c(C)c2[nH]1 | 61 | 59.1 | 69.7 | > 100 | > 100 | > 100 |
| C[n+]1c(-c2ccc(/C=N\Nc3ccnc(N/N=C/c4ccc(-c5cn6ccsc6[n+]5C)cc4)n3)cc2)cn2ccsc21 | 66.7 | > 100 | 67.3 | 43.9 | > 100 | 63.8 |
| Cn1c(=O)oc2cc(C(O)CN3CCN(Cc4ccc5c(c4)OCO5)CC3)ccc21 (stereo not drawn) | > 100 | > 100 | > 100 | > 100 | > 100 | > 100 |
| COC(=O)c1ccccc1C1CN=NC12Cc1cc3c(cc1C2=O)CCC3 (stereo not drawn) | > 100 | > 100 | > 100 | > 100 | > 100 | > 100 |
| COC(=O)NCCc1[nH]nc2c1C(=O)C=C(Nc1ccccc1OC)C2=O |  | 57.7 | 94.3 | 35.6 | 55.1 | 88.9 |
| C=CC(=O)C#Cc1cnc(OC)nc1OC | > 92.7 | 42.3 | 38.1 | 20.3 | 4.13 | 2.97 |
| CN(C)CCNc1ncnc2nc(-c3ccccc3)c(-c3ccccc3)nc12 | > 100 |  | > 100 | > 100 | 76 | > 100 |
| C#CC(O)/C=C/C(O)CCCC(O)CC#CC(O)C#CCCCCC(O)/C=C/CCCCCC(=O)CCCCCCCCCCCCCC(O)C(O)C#CC(=O)O (stereo not drawn) | > 25 | > 25 | > 25 | > 25 | > 25 | > 25 |
| COC1=CC(=O)C2=C(C1=O)[C@H]1CC[C@]3(C)C(=O)CC[C@H]3[C@@H]1CC2 | 49.7 | 29.5 | 16.9 | 58.7 | > 100 | 26.9 |
| COC1(OC)CCCCCCCCC(OC)(OC)CCCCCCCC1 | > 100 |  |  | > 100 |  |  |
| O=[N+]([O-])c1ccc(C2Nn3c(nnc3-c3cccc([N+](=O)[O-])c3)S2)cc1 (stereo not drawn) | > 100 | > 100 | > 100 | > 100 | > 100 | > 100 |
| CC(O)C1(O)C(O)CC(OC2c3cc4c(c(O)c3[C@@H]3C[C@@]2(C)OC32C=c3cc[nH]c3=N2)C(=O)c2cccc(O)c2C4=O)OC1C (stereo partly drawn) | 3.17 | 7.2 | 3.89 | 3.12 | 2.67 | 1.72 |
| O=C(O)CCC1C(=O)C2CCN1CC2 (stereo not drawn) | > 100 | > 100 | > 100 | > 100 | > 100 | > 100 |
| O=C(NCCc1ccccn1)c1ccc2cc(C(=O)N3CC(CCl)c4ccc([N+](=O)[O-])cc43)[nH]c2c1 (stereo not drawn) | > 100 | 48.3 | > 66.8 | > 100 | > 100 | > 100 |
| Cc1ccc(NC(=O)CC(=O)N2N=C(N(c3ccccc3)c3ccccc3)CC2c2ccccc2)cc1 (stereo not drawn) | > 100 | > 100 | > 100 | > 100 | > 100 | > 100 |
| CC(=O)O[C@H]1[C@@H](OC2CCCC2(c2ccccc2)c2ccccc2)O[N+]([O-])=C[C@@H]1c1ccccc1 (stereo partly drawn) | 80.2 | 21.4 | 40.9 | 23.6 | 7.54 | 14 |
| CC(=O)n1nc(-c2[nH]c(C)c(-c3nn(C(C)=O)c(=S)o3)c2C)oc1=S | > 100 | > 100 | > 100 | > 100 | > 100 | > 71.4 |
| CC(=O)Nn1c(Cc2ccc(Cl)cc2)nn(C)c1=O | > 100 | > 100 | > 100 | > 100 | > 100 | > 100 |
| c1ccc(C2(c3cc4ccccc4[nH]3)OCCO2)nc1 | > 100 | > 100 | > 100 | > 100 |  | > 100 |
| C=C1C(=O)O[C@H]2C(=O)[C@H](C)CCC/C(C)=C/CC[C@@]3(C)O[C@@H]3C[C@@H]12 | 33.3 |  | 23.3 | 11.7 | 4.72 | 4.18 |
| CC(C)(C)OC(=O)NC(Cc1ccc(OC(C)(C)C)cc1)C(=O)N[C@H]1CC[C@H](C(=O)O)C1 (stereo partly drawn) | > 100 |  | > 100 | > 100 | > 100 | > 100 |
| COC(=O)C1=C(N)C2=C(N)Oc3ccccc3C2CC1=C(C#N)C#N (stereo not drawn) | > 100 | 76.1 | 59.4 | > 100 | > 100 | > 100 |
